Earlier results in US10238626B2, “Therapeutic compounds” (ARIZONA BOARD OF REGENTS ON BEHALF OF ARIZONA STATE …, priority 2017, dated 2019).

Columns and labels:
[1] = target: hRXRβ (Homo sapiens, UniProt P28702); details: read-out: EC50 for the hRXRβ isoform; literature (Santin et al. 2009)
[2] = target: hRXR; details: Caco-2 cells; literature (Wagner et al. 2009)
[3] = test system: hRXR; details: Caco-2 cells; literature (Wagner et al. 2009); remark: listed apart in the source

hRXRβ, sequence (P28702 whole entry, canonical isoform): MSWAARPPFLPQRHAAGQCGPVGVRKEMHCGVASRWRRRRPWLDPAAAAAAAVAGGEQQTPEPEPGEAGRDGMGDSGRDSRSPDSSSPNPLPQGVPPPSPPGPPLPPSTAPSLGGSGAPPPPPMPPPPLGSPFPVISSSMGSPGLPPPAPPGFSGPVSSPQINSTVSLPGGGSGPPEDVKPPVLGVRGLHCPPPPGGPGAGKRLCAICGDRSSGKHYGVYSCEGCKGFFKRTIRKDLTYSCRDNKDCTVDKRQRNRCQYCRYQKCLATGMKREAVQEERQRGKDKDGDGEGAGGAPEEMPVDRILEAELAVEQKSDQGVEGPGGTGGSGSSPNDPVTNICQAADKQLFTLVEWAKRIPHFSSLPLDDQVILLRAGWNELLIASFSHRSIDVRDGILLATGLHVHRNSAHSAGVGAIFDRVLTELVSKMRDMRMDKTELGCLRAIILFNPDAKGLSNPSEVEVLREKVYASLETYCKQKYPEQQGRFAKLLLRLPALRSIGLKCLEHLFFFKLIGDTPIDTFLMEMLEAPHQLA

Compound	EC50 [1] [µM]	Kd [2] [µM]	EC50 [3] [µM]
Cc1cc2c(cc1-c1cc(/C=C/C(=O)O)ccc1O)C(C)(C)CCC2(C)C [CD3254]	~0.01		
C=C(c1ccc(C(=O)O)c(F)c1)c1cc2c(cc1C)C(C)(C)CCC2(C)C [compound 3]		0.012	0.043
